Test results: patent US9446026B2, “Ocular formulations for drug-delivery to the posterior segment of the eye” (PanOptica, Inc., priority 2013, dated 2016)

How the values were obtained:
[1] = pKa (water) of Compound-I drug substance; type: physicochemical
Source text: The embodiments provide three formulations of Compound-I or its free base—the Formula II compound.

pathologic angiogenesis = assay: Systemic administration in murine cornea and rat growth plate models; type: in vivo
FGFR-2 = FGFR-2 (Homo sapiens (Human), UniProt P21802); assay: In vitro inhibition of tyrosine kinases; type: biochemical
[2] = biological target: recombinant FGFR-2 tyrosine kinase (Homo sapiens (Human), UniProt P21802); assay: Inhibition of recombinant FGFR-2 tyrosine kinase using exogenous substrate; type: biochemical
Sequence of recombinant FGFR-2 tyrosine kinase (P21802 22-821): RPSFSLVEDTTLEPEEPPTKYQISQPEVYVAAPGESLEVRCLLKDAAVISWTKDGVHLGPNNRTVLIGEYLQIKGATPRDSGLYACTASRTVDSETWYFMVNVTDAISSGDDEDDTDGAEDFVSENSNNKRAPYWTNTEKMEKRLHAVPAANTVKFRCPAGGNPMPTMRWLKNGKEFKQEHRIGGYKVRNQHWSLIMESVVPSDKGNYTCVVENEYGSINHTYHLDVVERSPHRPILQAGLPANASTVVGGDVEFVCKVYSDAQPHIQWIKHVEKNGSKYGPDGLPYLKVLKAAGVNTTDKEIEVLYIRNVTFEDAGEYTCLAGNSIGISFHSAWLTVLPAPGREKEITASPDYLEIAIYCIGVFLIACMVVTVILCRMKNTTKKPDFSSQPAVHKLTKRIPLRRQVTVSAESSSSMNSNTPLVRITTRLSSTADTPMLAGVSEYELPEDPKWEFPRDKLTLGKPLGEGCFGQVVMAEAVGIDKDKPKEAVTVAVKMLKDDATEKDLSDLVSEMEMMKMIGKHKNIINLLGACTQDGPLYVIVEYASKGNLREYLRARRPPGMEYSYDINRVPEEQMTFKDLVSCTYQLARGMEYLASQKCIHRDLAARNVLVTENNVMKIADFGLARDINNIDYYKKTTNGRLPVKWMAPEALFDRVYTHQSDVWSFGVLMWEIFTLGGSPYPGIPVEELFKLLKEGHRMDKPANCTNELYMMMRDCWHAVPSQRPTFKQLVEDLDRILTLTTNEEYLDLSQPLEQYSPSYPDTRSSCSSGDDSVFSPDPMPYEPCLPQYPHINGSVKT

Sequence of FGFR-2 (P21802 22-821): as above

For `Cl.NC(=O)c1c(OCc2c(F)cc(Br)cc2F)nsc1NC(=O)NCCCCN1CCCC1` [Compound-I, 3-[(4-bromo-2,6-difluorophenyl)methoxy]-5-[[[[4-(1-pyrrolidinyl)butyl]amino]carbonyl]amino]-4-isothiazolecarboxamide hydrochloride], the pKa [1] was 10.5, the “Inhibition of pathologic angiogenesis” value (pathologic angiogenesis) was “shown to inhibit” and the IC50 (FGFR-2; 10-point titration curve (257 nM-5000 nM)) was 3.08 nM. For the same compound, the “IC50, FGFR-2” value (FGFR-2; 10-point titration curve, hydrochloride) was 1.75 ng/mL and (1.75) ng/mL, the IC50 [2] was 8.79 nM and the “IC50, recombinant FGFR-2 tyrosine kinase” value ([2]; hydrochloride) was 5 ng/mL and (5) ng/mL.
